Values quoted from earlier work as cited in patent US7098029B1, “Product and method for control of obesity” (Metabolic Pharmaceuticals Limited, priority 1999, dated 2006).

Tested on: C57B1/6J (Ob/Ob) mouse
Details: administration by injection; cited from earlier work

Q: With “hGH 177–191: synthetic peptide corresponding to amino acid residues 177–191 of the human growth hormone sequence (LRIVQCRSVEGSCGF)” as the substance, how does the adipose tissue mass read?
A: reduce body weight gain and adipose tissue mass

Q: What about the body weight gain of the same substance?
A: reduce body weight gain
